Results as given in patent US9371265B2, “Compositions and methods related to inhibitors of JAK kinase” (EP PHARMA, INC., priority 2012, dated 2016).

Columns and labels:
[1] = molecular target: ZAP70 (Homo sapiens, UniProt P43403); assay: Kinase panel: ZAP70; format: biochemical; conditions: 10 μM EP009
Procedure: (§1) Achieving JAK3 selectivity remains a significant challenge in the development of new small molecules for the treatment of cancer and immune-derived diseases. As such, the inventors employed cell-based screening assays of small-molecule libraries based upon the chemical scaffold of the established JAK3 inhibitor NC1153 (Stepkowski et al., J Immunol. (2005), 175(7):4236-4246) EP009 (FIG. 2A) was selected as a lead compound due to improved intrinsic stability (>95% purity in various solvents at 37° C. for 24 hours; FIG. 3) and high-degree of JAK3 selectivity. To test JAK3 versus JAK2 specificity of EP009, the IL-2/JAK3-dependent Kit225, and IL-3/JAK2-dependent BaF/3 cell lines were used. Kit225 and BaF/3 cells growing in the presence of IL-2 or IL-3, respectively, were treated with ascending concentrations of EP009 for 12 hours and cellular JAK3 and JAK2 tyrosine phosphorylation levels detected by Western blot analysis (FIGS. 2B and 2C). Following densitometric analysis, EP009 was determined to dose-dependently reduce IL-2-mediated JAK3 tyrosine phosphorylation with a cellular 50% inhibitory concentration (IC50) between 10 and 20 μM (FIG. 2B). […] To globally evaluate specificity, the inhibitory activity of EP009 was measured against a panel of protein kinases distributed throughout the kinome using the scanEDGE profiling service (KINOMEscan). […]

[2] = molecular target: CDK2 (Homo sapiens, UniProt P24941); assay: Kinase panel: CDK2; format: biochemical; conditions: 10 μM EP009
Procedure: as §1

[3] = molecular target: CSNK1D (Homo sapiens, UniProt P48730); assay: Kinase panel: CSNK1D; format: biochemical; conditions: 10 μM EP009
CSNK1D, sequence (P48730 whole entry): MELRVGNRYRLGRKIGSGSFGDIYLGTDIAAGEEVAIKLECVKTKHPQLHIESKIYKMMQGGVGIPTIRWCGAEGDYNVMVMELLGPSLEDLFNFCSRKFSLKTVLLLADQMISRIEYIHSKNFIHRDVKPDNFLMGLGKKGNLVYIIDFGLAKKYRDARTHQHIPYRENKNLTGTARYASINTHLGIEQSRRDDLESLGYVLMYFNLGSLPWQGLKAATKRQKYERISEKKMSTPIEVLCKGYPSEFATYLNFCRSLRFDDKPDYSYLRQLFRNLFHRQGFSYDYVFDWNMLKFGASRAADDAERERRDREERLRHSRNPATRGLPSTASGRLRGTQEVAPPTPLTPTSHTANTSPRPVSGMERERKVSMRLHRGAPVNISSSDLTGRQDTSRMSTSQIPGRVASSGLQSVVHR
Procedure: as §1

[4] = molecular target: TSSK1B (Homo sapiens, UniProt Q9BXA7); assay: Kinase panel: TSSK1B; format: biochemical; conditions: 10 μM EP009
TSSK1B, sequence (Q9BXA7 whole entry): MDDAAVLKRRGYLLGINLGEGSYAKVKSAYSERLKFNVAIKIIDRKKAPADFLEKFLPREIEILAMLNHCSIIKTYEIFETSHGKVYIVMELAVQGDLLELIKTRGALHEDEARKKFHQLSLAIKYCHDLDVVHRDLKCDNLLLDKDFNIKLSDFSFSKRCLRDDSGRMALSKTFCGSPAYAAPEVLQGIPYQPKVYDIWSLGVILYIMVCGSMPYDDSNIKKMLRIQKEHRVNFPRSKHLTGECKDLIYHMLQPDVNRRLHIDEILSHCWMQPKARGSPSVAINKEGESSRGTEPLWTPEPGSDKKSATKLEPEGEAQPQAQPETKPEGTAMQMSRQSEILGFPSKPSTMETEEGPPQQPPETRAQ
Procedure: as §1

[5] = molecular target: CDK9 (Homo sapiens, UniProt P50750); assay: Kinase panel: CDK9; format: biochemical; conditions: 10 μM EP009
CDK9, sequence (P50750 whole entry): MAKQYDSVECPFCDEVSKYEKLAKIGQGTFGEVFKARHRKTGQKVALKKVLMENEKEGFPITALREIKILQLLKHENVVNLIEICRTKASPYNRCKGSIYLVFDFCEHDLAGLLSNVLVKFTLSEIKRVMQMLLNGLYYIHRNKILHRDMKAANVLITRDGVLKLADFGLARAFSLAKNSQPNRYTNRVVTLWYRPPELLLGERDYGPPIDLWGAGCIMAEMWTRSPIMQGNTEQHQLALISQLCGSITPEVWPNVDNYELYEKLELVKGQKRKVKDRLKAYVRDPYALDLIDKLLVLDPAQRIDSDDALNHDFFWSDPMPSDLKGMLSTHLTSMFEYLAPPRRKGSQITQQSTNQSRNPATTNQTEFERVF
Procedure: as §1

[6] = molecular target: PLK4 (Homo sapiens, UniProt O00444); assay: Kinase panel: PLK4; format: biochemical; conditions: 10 μM EP009
PLK4, sequence (O00444 whole entry): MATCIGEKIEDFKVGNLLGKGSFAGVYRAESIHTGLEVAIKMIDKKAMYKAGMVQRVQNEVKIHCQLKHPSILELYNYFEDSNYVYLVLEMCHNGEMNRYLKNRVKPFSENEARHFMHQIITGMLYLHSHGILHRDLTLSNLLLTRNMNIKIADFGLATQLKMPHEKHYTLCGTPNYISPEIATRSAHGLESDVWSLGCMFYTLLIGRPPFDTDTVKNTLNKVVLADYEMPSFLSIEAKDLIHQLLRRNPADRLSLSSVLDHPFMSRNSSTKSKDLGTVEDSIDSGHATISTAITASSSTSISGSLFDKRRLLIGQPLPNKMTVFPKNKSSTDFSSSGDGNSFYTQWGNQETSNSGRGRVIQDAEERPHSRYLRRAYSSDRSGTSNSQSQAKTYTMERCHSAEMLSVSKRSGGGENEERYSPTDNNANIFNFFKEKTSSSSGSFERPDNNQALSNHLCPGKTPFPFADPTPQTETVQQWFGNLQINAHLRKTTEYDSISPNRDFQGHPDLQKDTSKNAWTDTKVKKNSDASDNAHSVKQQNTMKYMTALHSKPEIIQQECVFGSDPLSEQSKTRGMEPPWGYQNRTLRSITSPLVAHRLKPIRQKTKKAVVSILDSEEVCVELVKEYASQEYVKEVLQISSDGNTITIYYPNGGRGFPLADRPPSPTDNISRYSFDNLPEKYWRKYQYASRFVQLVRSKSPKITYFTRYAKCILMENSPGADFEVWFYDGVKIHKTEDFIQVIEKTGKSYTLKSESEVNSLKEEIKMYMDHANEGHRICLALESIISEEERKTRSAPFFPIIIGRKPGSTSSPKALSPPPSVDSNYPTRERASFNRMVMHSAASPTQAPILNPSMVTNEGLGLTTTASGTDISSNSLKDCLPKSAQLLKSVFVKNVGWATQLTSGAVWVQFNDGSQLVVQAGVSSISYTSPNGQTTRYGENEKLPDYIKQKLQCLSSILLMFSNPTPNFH
Procedure: as §1

[7] = test system: HEK293; assay: HEK293 cell viability (MTS); format: cell-based, human; conditions: 72 hours, concentrations giving complete loss of JAK3-dependent cell viability (0-10 μM)
Procedure: FIGS. 2A-2F. Selective inhibition of JAK3 by EP009 results in loss of JAK3-dependent tumor cell line viability with no detectable off-target effects in key cell types. (A) Chemical structure of EP009 (M.W. 224.34). (B) Kit225 or (C) BaF/3 cells cultured in the presence of IL-2 or IL-3, respectively, were treated with vehicle (PBS; lane a) or increasing amounts of EP009 (0-50 μM; lanes b-h) for 12 hours. Cells were then lysed, clarified, and immunoprecipitated (IP) with anti-JAK3 (α-JAK3) or anti-JAK2 (α-JAK2), and subjected to Western blot (WB) analysis with anti-phosphotyrosine (α-pY). Blots were stripped and reprobed with corresponding antibody to verify equivalent protein loading. […] (E) Kit225 or BaF/3 cells were cultured with increasing amounts of EP009 (0-10 μM) for 72 hours and cell viability measured with the MTS tetrazolium salt assay. Values represent mean absorbance (OD490-OD650 nm) normalized to vehicle (PBS) treated control cells, while error bars represent the standard deviation (n=3). (F) HEK293, HEPG2, or naïve primary human PBMCs were cultured with increasing amounts of EP009 (0-10 μM) for 72 hours and cell viability measured with the MTS tetrazolium salt assay. Values represent mean absorbance (OD490-OD650 nm) normalized to vehicle (PBS) treated control cells, while error bars represent the standard deviation (n=3). […]

[8] = molecular target: EGFR(L858R) (Homo sapiens, UniProt P00533, L858R); assay: Kinase panel: EGFR(L858R); format: biochemical; conditions: 10 μM EP009
Procedure: as §1

[9] = LD50 / acute safety, intravenous tail vein injection; format: in vivo; conditions: mice, IV bolus
Procedure: Mice were dosed using EP009 (-P) by intravenous tail vein injection. 25 mice were divided into groups of 5 and given doses of 2.0 mg (group B), 4.0 mg (group C), 6.0 mg (group D), and 8.0 mg (group E) of EP009, along with a placebo control (group A), in a volume of […]. This corresponded to doses of 100, 200, 300, 400 mg/kg, and 0 mg/kg (control). Dosing began at 3:15 p.m., and began with the highest dose group, followed by 6, 4, 2, and the control group. Dosing took around 15 minutes.

[10] = molecular target: TIE2 (Homo sapiens, UniProt Q02763); assay: Kinase panel: TIE2; format: biochemical; conditions: 10 μM EP009
TIE2, sequence (Q02763 23-1124): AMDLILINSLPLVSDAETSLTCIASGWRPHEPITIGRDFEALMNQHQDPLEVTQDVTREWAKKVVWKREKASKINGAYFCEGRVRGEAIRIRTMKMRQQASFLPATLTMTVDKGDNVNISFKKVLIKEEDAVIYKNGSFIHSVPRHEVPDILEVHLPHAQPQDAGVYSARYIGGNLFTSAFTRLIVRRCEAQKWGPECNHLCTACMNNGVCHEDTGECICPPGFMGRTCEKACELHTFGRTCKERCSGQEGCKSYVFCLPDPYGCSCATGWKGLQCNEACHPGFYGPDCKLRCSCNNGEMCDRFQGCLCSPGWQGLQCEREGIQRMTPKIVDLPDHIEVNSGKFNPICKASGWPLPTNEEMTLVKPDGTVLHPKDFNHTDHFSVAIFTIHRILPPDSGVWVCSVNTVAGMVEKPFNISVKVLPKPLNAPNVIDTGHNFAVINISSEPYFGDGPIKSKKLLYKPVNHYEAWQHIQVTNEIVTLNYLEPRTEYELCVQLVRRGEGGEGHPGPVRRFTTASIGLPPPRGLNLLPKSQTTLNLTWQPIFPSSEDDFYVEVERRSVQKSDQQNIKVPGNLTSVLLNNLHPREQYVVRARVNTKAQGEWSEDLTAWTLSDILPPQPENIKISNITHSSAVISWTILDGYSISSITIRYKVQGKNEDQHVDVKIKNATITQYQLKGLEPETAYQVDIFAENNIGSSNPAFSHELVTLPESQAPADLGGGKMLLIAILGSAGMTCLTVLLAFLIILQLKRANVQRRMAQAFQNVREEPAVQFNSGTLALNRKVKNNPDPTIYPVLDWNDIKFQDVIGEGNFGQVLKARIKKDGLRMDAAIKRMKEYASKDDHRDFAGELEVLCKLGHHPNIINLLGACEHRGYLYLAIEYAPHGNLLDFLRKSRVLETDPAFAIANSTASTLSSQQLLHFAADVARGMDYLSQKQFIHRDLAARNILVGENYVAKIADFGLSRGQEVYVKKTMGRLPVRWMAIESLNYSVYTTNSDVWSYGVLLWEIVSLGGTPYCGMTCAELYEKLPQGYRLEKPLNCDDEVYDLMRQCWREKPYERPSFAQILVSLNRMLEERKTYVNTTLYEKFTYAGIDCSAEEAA
Procedure: as §1

[11] = molecular target: T1, immunopurified JAK3 (Homo sapiens, UniProt P52333); assay: In vitro JAK3 autokinase assay; format: biochemical; conditions: 1 μM ATP, densitometry analysis
T1 construct: immunopurified JAK3 from YT cells resuspended in kinase buffer; endogenous in cells; host or cells: YT cells (immunoprecipitate)
T1 sequence (P52333 whole entry): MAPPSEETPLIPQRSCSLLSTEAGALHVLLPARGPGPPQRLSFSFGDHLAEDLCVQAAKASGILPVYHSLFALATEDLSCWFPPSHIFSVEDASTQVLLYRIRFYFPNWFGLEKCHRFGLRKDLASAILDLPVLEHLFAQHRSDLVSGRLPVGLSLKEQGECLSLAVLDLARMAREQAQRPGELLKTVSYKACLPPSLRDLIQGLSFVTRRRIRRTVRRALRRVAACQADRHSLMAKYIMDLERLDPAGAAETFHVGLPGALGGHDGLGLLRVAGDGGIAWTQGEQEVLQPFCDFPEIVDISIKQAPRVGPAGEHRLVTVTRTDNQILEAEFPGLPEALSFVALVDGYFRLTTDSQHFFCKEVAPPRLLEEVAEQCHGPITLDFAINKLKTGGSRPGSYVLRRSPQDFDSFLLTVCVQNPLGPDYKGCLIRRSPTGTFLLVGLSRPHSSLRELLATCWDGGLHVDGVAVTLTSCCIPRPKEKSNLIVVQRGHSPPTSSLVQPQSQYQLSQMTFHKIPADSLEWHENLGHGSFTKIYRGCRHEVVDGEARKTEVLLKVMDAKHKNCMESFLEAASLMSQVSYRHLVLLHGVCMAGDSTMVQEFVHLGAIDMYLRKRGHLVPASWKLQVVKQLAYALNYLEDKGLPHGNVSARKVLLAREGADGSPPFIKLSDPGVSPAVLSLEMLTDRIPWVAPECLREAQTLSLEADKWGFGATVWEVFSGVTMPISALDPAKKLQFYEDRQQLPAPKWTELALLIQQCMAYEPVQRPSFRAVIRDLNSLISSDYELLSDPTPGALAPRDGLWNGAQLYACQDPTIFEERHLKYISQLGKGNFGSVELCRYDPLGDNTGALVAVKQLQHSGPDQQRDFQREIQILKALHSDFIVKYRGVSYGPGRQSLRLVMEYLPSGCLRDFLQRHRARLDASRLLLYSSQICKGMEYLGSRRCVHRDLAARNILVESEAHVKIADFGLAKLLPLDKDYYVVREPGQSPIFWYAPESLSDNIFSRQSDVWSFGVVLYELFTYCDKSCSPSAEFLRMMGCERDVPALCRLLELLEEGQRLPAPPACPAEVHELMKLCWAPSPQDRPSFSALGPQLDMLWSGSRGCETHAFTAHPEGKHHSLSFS

ZAP70, sequence (P43403 whole entry): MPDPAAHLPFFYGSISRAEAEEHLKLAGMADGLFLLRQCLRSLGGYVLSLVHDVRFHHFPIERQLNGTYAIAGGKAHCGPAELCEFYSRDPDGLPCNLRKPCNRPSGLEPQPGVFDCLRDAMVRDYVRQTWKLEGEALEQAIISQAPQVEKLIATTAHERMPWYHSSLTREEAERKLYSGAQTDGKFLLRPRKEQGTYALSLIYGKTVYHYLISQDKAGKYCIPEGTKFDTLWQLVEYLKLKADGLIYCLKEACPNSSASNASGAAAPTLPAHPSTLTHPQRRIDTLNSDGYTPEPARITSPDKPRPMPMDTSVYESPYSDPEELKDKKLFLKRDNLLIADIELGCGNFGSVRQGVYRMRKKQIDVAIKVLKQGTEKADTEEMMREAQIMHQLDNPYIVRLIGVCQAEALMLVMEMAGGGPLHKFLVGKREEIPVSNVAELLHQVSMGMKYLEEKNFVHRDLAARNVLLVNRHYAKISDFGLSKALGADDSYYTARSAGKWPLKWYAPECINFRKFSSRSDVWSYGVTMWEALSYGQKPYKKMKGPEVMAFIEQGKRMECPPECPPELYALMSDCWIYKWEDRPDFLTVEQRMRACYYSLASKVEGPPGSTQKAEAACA

## C=C1CCCCCCCCCC(CO)C1=O (stereo not drawn) [EP009, 2-(Hydroxymethyl)-12-methylenecyclododecanone]
[1]
  Kinase Activity (% of Control): 99 % of Control
[2]
  Kinase Activity (% of Control): 98 % of Control
[3]
  Kinase Activity (% of Control): 100 % of Control
[4]
  Kinase Activity (% of Control): 98 % of Control
[5]
  Kinase Activity (% of Control): 90 % of Control
[6]
  inhibition of Polo-like kinase 4 (PLK4): 47 % inhibition
[6]; PLK4
  Kinase Activity (% of Control): 53 % of Control
[7]
  effect on HEK293 cell viability: no detectable loss of cell viability
[8]
  Kinase Activity (% of Control): 100 % of Control
[9]
  dose limiting safety in vivo: 200 to 300 mg/kg
[10]
  Kinase Activity (% of Control): 90 % of Control
[11]
  IC50: 1 to 2.5 µM
